Test results from EP2185126B1, “USE OF TROXERUTIN TO QUENCH THE FLUORESCENCE OF DISODIUM PHENYL DIBENZIMIDAZOLE TETRASULFONATE” (Symrise AG, priority 2007, dated 2007).

Experiments:
[1] = Colour and colour stability of emulsion on storage; assay type: physicochemical; settings: emulsion prepared with the substance
[2] = Solubility in water; assay type: physicochemical

solubility in water [2]	Structure (SMILES)	colour / colour stability of emulsion [1]
poorly soluble in water	C[C@@H]1O[C@@H](O[C@H]2[C@H](Oc3cc(O)c4c(c3)O[C@H](c3ccc(O)cc3)CC4=O)O[C@H](CO)[C@@H](O)[C@@H]2O)[C@H](O)[C@H](O)[C@H]1O [naringin]	less susceptible to colouration problems than other flavone derivatives
	O=c1c(O)c(-c2ccc(O)c(O)c2)oc2cc(O)cc(O)c12 [quercetin]	deeply yellow in colour
	C[C@@H]1O[C@@H](OC[C@H]2O[C@@H](Oc3c(-c4ccc(O)c(O)c4)oc4cc(O)cc(O)c4c3=O)[C@H](O)[C@@H](O)[C@@H]2O)[C@H](O)[C@H](O)[C@H]1O [rutin]	beige in colour and on storage turns dark brown
ease of solubility in water	C[C@@H]1O[C@@H](OC[C@H]2O[C@@H](Oc3c(-c4ccc(OCCO)c(OCCO)c4)oc4cc(OCCO)cc(O)c4c3=O)[C@H](O)[C@@H](O)[C@@H]2O)[C@H](O)[C@H](O)[C@H]1O [troxerutin, 7,3',4'-tris[O-(2-hydroxyethyl)]rutin]	long term colour stability

Structure (SMILES)	solubility in water [2]	colour / colour stability of emulsion [1]
COc1ccc([C@@H]2CC(=O)c3c(O)cc(O[C@@H]4O[C@H](CO[C@@H]5O[C@@H](C)[C@H](O)[C@@H](O)[C@H]5O)[C@@H](O)[C@H](O)[C@H]4O)cc3O2)cc1O [hesperidin]	poorly soluble in water	less susceptible to colouration problems than other flavone derivatives
